Measured values published in patent publication US11414385B2, “Compounds and methods for treating, detecting, and identifying compounds to treat apicomplexan parasitic diseases” (The University of Chicago, priority 2015, dated 2022).

Assays:
in vitro = in vitro ADME; details: dog, MDCK-MDR1
MDR1 = experiment: in vitro; assay type: in vitro ADME; details: dog, MDCK-MDR1, MDCK-MDR1 Efflux Ratio
[1] = target: T1, Plasmodium falciparum bc1 complex cytochrome c reductase (Pfbc1) (Plasmodium falciparum, UniProt Q02768); experiment: Pfbc1 native assay (cytochrome c reduction by parasite extract); assay type: biochemical; details: compound 1 μM, mean ± s.e.m. of 4 independent experiments
T1 construct: Parasite extract was then prepared by disruption with a sonicating probe; endogenous in cells; host or cells: P. falciparum 3D7 blood-stage parasites, saponin-freed and sonicated (crude parasite extract)
T1 sequence (Q02768 1-376): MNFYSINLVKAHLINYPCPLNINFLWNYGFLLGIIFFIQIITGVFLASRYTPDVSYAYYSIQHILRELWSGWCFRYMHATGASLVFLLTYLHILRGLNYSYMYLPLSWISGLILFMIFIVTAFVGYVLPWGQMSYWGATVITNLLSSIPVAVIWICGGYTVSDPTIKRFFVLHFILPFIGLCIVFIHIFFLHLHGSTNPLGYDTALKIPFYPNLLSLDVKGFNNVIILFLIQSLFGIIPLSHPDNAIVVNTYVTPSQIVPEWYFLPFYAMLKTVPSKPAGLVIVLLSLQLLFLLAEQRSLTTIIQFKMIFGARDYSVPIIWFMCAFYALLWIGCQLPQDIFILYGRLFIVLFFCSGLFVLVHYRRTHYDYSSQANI
Description: Plasmodium falciparum: 3D7 strain was obtained from the Liverpool School of Tropical Medicine. Protease cocktail inhibitor was obtained from Roche. Bradford protein assay dye reagent was obtained from Bio-Rad. All other reagents were obtained from Sigma-Aldrich. Decylubiquinol was produced as per Fisher et al. (Fisher et al. 2004)^21. In brief, 25 mg of decylubiquinone were dissolved in 400 μl of nitrogen-saturated hexane. An equal volume of aqueous 1 M sodium dithionite was added, and the mixture vortexed until colorless. The organic phase containing the decylubiquinol was collected, the solvent was evaporated under N2 and the decylubiquinol finally dissolved in 100 μl of 96% ethanol (acidified with 10 mM HCl). Concentrations of decylubiquinol was determined spectrophotometrically on a Cary 300 Bio UV/visible spectrophotometer (Varian, UK) from absolute spectra, using ε288-320=8.1 mM-1·cm^−1. Decylubiquinol was stored at −80° C. and used within two weeks.
The protocol for the preparation of parasite extract was adapted from Fisher et al. (Fisher et al. 2009)^22. Free parasites were prepared from infected erythrocytes pooled from five T75 flasks, by adding 5 volumes of 0.15% (w/v) saponin in phosphate-buffered saline (137 mM NaCl, 2.7 mM KCl, 1.76 mM K2HPO4, 8.0 mM Na2HPO4, 5.5 mM D-glucose, pH 7.4) for 5 min, followed by three washes by centrifugation in RPMI containing HEPES (25 mM), and a final resuspension in potassium phosphate buffer (50 mM K2HPO4, 50 mM KH2PO4, 2 mM EDTA, pH7.4) containing a protease inhibitor cocktail (Complete Mini; Roche). Parasite extract was then prepared by disruption with a sonicating probe for 5 s, followed by a 1 min rest period on ice to prevent the sample overheating. […] The protein concentration of the parasite extract was determined by Bradford protein assay (Bio-Rad).
Plasmodium falciparum bc1 complex cytochrome c reductase (Pfbc1) activity was measured by monitoring cytochrome c reduction at 550 versus 542 nm using a Cary 300 Bio UV-Visible Spectrophotometer (Varian, UK), using a protocol adapted from Fisher et al. (Fisher et al. 2009)^21-23. […]

| SMILES | Papp A→B (in vitro) [×10⁻⁶ cm/s] | efflux ratio (MDR1) | Inhibition of cytochrome c reduction (% atovaquone response) [1] [% atovaquone response] | inhibition at 1 µM ([1]; read-out: Inhibition of cytochrome c reduction (% atovaquone response)) [%] |
| --- | --- | --- | --- | --- |
| Cc1[nH]c2c(c(=O)c1-c1ccc(Oc3ccc(OC(F)(F)F)cc3)cc1)CCCC2 [JAG21, 2-methyl-3-(4-(4-(trifluoromethoxy)phenoxy)phenyl)-5,6,7,8-tetrahydroquinolin-4(1H)-one] | > 10 | < 1.5 | 86.4 ± 3.2 | – |
| Cc1[nH]c2c(c(=O)c1-c1ccc(Oc3ccccc3)cc1)CCCC2 [MJM170] | 32.1 | < 1.5 | – | 69.7 ± 11.3 |
